Experimental data taken from patent US12435087B2, “Modulators of DCN-1 and methods of use thereof” (Cellarity, Inc., priority 2023, dated 2025).

Target: DCN1 protein (Homo sapiens (Human), UniProt Q96GG9)
Experiment: Intact protein MS analysis with the RapidFire-TOF system (covalent adduct formation)
Assay type: binding
Conditions: 400 nM DCN1, incubated at room temperature for 3 hours
Description: (§1) DCN1 protein, His-TEV-DCN1, were expressed in E. Coli. The His-tagged protein was first purified with an Ni-NTA column. The His-tag was cleaved using His-tag TEV protease and the His-tags were removed using a second Ni-NTA column. Protein purity was verified with SDS-PAGE and intact MS. DCN1 was dissolved in a buffer containing 25 mM Tris-HCl, 200 mM NaCl, and 1 mM DTT at 400 nM. 11 concentrations of compounds were added to the DCN1 solution and incubated at room temperature for 3 hours, unless otherwise specified. The reaction plates were quenched by adding 0.2% formic acid. Quenched assay plates were analyzed with an Agilent RapidFire 360 system connected to an Agilent 6545 Q-TOF mass spectrometer equipped with an AJS source. 10 μL of sample volume was loaded onto a custom packed cartridge (4 μL, PLRP-S 30 μm/1000 Å pore; Optimize Technologies) with loading buffer (ddH2O with 0.09% (vol/vol) formic acid and 0.01% (vol/vol) trifluoroacetic acid; 1.25 ml/min) for 6 seconds before being eluted directly into the mass spectrometer in elution buffer (80% acetonitrile with 0.09% (vol/vol) formic acid and 0.01% (vol/vol) trifluoroacetic acid; 0.5 ml/min) for 7 seconds. The cartridge was re-equilibrated with loading buffer for 1 second before collection of the next sample. The Q-TOF was operated in TOF-only positive ionization mode set to the following parameters: Gas Temp=350 C, Drying Gas=7 l/min, Nebulizer=50 psi, Sheath Gas Temp=400 C, Sheath Gas Flow=12 l/min, VCap=4000 V, Nozzle Voltage=1000 V, Fragmentor=125 V, Skimmer=65 V and Oct 1 RF Vpp=750V. Raw MS data files were deconvoluted and analyzed using the Agilent MassHunter Bioconfirm software package to identify both parent protein and expected compound adduct mass signatures.
An MS assay was performed to evaluate the ability of the compounds to covalently modify DCN-1.
as §1, with “Vcap=4000” for “VCap=4000”

Sequence of DCN1 protein (Q96GG9 whole entry): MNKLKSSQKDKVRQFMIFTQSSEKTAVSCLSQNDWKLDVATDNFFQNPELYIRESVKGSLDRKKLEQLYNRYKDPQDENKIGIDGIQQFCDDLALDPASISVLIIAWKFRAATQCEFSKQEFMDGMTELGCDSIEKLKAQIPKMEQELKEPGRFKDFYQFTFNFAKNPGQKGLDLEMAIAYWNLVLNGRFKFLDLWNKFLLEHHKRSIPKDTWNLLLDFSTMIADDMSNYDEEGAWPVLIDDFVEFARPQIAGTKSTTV

| Compound | Emax | % Adduct Formation (MS Emax) |
| --- | --- | --- |
| CCN1C(=O)[C@H](NC(=O)c2cccc(C(F)(F)F)c2)[C@@H](c2ccccc2NC(=O)C(F)Cl)c2cnn(-c3ccccc3)c21 (mixture of isomers) [Compound I-174] | 0 to 30% |  |
| CCN1C(=O)[C@H](NC(=O)c2cccc(C(F)(F)F)c2)[C@@H](c2cccc(NC(=O)[C@H](C)Br)c2)c2c(C)nn(-c3ccccc3)c21 (mixture of isomers) [Compound I-180] | 80 to 100% |  |
| CCN1C(=O)[C@H](NC(=O)c2cccc(C(F)(F)F)c2)[C@@H](c2ccccc2NC(=O)[C@H](C)Cl)c2c(C)nn(-c3ccccc3)c21 (mixture of isomers) [Compound I-181] |  | ++ (MS Emax % adduct formation greater than 30.0 and less than or equal to 80.0) |
| CCN1C(=O)[C@H](NC(=O)c2cccc(C(F)(F)F)c2)[C@@H](c2ccccc2NC(=O)[C@H](C)Cl)c2c(C)nn(-c3ccccc3)c21 (mixture of isomers) [Compound I-182] |  | + (MS Emax % adduct formation greater than or equal to 0.0 and less than or equal to 30.0) |
| CCN1C(=O)[C@H](NC(=O)c2cccc(C(F)(F)F)c2)[C@@H](c2ccccc2NC(=O)[C@@H](C)Cl)c2cnn(-c3ccccc3)c21 (mixture of isomers) [Compound I-185] | 0 to 30% |  |
| CCN1C(=O)[C@@H](NC(=O)c2cccc(C(F)(F)F)c2)[C@@H](c2cccc(NC(=O)[C@H](C)Br)c2)c2c(C)nn(-c3ccccc3)c21 (mixture of isomers) [Compound I-204] | 0 to 30% |  |
| C=CS(=O)(=O)Nc1cccc([C@H]2c3c(C)nn(-c4ccccc4)c3N(CC)C(=O)[C@@H]2NC(=O)c2cccc(C(F)(F)F)c2)c1 (racemic) [Compound I-5] | 80 to 100% |  |
| C/C=C/C(=O)Nc1cccc([C@H]2c3c(C)nn(-c4ccccc4)c3N(CC)C(=O)[C@@H]2NC(=O)c2cccc(C(F)(F)F)c2)c1 (racemic) [Compound I-164] | 0 to 30% |  |
| C=C(C)C(=O)Nc1ccccc1[C@H]1c2c(C)nn(-c3ccccc3)c2N(CC)C(=O)[C@@H]1NC(=O)c1cccc(C(F)(F)F)c1 (racemic) [Compound I-165] | 0 to 30% |  |
| C=CS(=O)(=O)Nc1ccccc1[C@H]1c2cnn(-c3ccccc3)c2N(CC)C(=O)[C@@H]1NC(=O)c1cccc(C(F)(F)F)c1 (racemic) [Compound I-166] | 80 to 100% |  |
| CCN1C(=O)[C@H](NC(=O)c2cccc(C(F)(F)F)c2)[C@@H](c2ccccc2NC(=O)/C=C/C(=O)OC)c2cnn(-c3ccccc3)c21 (racemic) [Compound I-167] | 80 to 100% |  |
| CCN1C(=O)[C@H](NC(=O)c2cccc(C(F)(F)F)c2)[C@@H](c2ccccc2NC(=O)/C=C/C(F)(F)F)c2cnn(-c3ccccc3)c21 (racemic) [Compound I-168] | 0 to 30% |  |
| CCN1C(=O)[C@H](NC(=O)c2cccc(C(F)(F)F)c2)[C@@H](c2ccccc2NC(=O)CCl)c2cnn(-c3ccccc3)c21 (racemic) [Compound I-170] |  | +++ (MS Emax % adduct formation greater than 80.0 and less than or equal to 100.0) |
| CCN1C(=O)[C@H](NC(=O)c2cccc(C(F)(F)F)c2)[C@@H](c2cccc(NC(=O)COc3c(F)c(F)cc(F)c3F)c2)c2c(C)nn(-c3ccccc3)c21 (racemic) [Compound I-171] | 0 to 30% |  |
| C=C(CN1CCOCC1)C(=O)Nc1cccc([C@H]2c3c(C)nn(-c4ccccc4)c3N(CC)C(=O)[C@H]2NC(=O)c2cccc(C(F)(F)F)c2)c1 (racemic) [Compound I-172] |  | + (MS Emax % adduct formation greater than or equal to 0.0 and less than or equal to 30.0) |
| C#CC(=O)Nc1cccc([C@H]2c3c(C)nn(-c4ccccc4)c3N(CC)C(=O)[C@H]2NC(=O)c2cccc(C(F)(F)F)c2)c1 (racemic) [Compound I-173] | 30 to 80% |  |
| CCN1C(=O)[C@H](NC(=O)c2cccc(C(F)(F)F)c2)[C@@H](c2ccccc2NS(=O)(=O)CCl)c2cnn(-c3ccccc3)c21 (racemic) [Compound I-175] | 0 to 30% |  |
| CCN1C(=O)[C@H](NC(=O)c2cccc(C(F)(F)F)c2)[C@@H](c2ccccc2NC(=O)/C=C/CN2CCOCC2)c2cnn(-c3ccccc3)c21 (racemic) [Compound I-176] | 0 to 30% |  |

| Compound | Emax | % Adduct Formation (MS Emax) |
| --- | --- | --- |
| C=C(CN(C)C)C(=O)Nc1ccccc1[C@H]1c2cnn(-c3ccccc3)c2N(CC)C(=O)[C@@H]1NC(=O)c1cccc(C(F)(F)F)c1 (racemic) [Compound I-177] | 30 to 80% |  |
| CCN1C(=O)[C@H](NC(=O)c2cccc(C(F)(F)F)c2)[C@@H](c2ccccc2NC(=O)/C(C#N)=C/C2CC2)c2cnn(-c3ccccc3)c21 (racemic) [Compound I-179] | 80 to 100% |  |
| C=C(C)C(=O)Nc1ccccc1[C@H]1c2cnn(-c3ccccc3)c2N(CC)C(=O)[C@@H]1NC(=O)c1cccc(C(F)(F)F)c1 (racemic) [Compound I-183] | 0 to 30% |  |
| CCN1C(=O)[C@@H](NC(=O)c2cccc(C(F)(F)F)c2)[C@@H](c2cccc(NS(=O)(=O)CCl)c2)c2c(C)nn(-c3ccccc3)c21 (racemic) [Compound I-184] | 0 to 30% |  |
| C=CS(=O)(=O)Nc1cccc([C@H]2c3c(C)nn(-c4ccccc4)c3N(CC)C(=O)[C@H]2NC(=O)c2cccc(C(F)(F)F)c2)c1 (racemic) [Compound I-186] | 30 to 80% |  |
| CCN1C(=O)[C@H](NC(=O)c2cccc(C(F)(F)F)c2)[C@@H](c2ccc(F)cc2NC(=O)CC#N)c2cnn(-c3ccccc3)c21 (racemic) [Compound I-187] | 0 to 30% |  |
| CCN1C(=O)[C@H](NC(=O)c2cccc(C(F)(F)F)c2)[C@@H](c2ccccc2NC(=O)C2=CCCC2)c2cnn(-c3ccccc3)c21 (racemic) [Compound I-188] | 0 to 30% |  |
| C/C=C/C(=O)Nc1ccccc1[C@H]1c2cnn(-c3ccccc3)c2N(CC)C(=O)[C@@H]1NC(=O)c1cccc(C(F)(F)F)c1 (racemic) [Compound I-189] | 0 to 30% |  |
| C=CC(=O)Nc1ccccc1[C@H]1c2cnn(-c3ccccc3)c2N(CC)C(=O)[C@@H]1NC(=O)c1cccc(C(F)(F)F)c1 (racemic) [Compound I-190] | 30 to 80% |  |
| CCN1C(=O)[C@@H](NC(=O)c2cccc(C(F)(F)F)c2)[C@@H](c2ccccc2NC(=O)CCl)c2c(C)nn(-c3ccccc3)c21 (racemic) [Compound I-191] | 80 to 100% |  |
| CCN1C(=O)[C@@H](NC(=O)c2cccc(C(F)(F)F)c2)[C@@H](c2cccc(NC(=O)/C=C/CN(C)C)c2)c2c(C)nn(-c3ccccc3)c21 (racemic) [Compound I-192] | 0 to 30% |  |
| CC#CC(=O)Nc1cccc([C@H]2c3c(C)nn(-c4ccccc4)c3N(CC)C(=O)[C@@H]2NC(=O)c2cccc(C(F)(F)F)c2)c1 (racemic) [Compound I-193] | 30 to 80% |  |
| C#CC(=O)Nc1ccccc1[C@H]1c2cnn(-c3ccccc3)c2N(CC)C(=O)[C@@H]1NC(=O)c1cccc(C(F)(F)F)c1 (racemic) [Compound I-194] | 80 to 100% |  |
| CCN1C(=O)[C@H](NC(=O)c2cccc(C(F)(F)F)c2)[C@@H](c2ccccc2NC(=O)C2=CCC2)c2cnn(-c3ccccc3)c21 (racemic) [Compound I-195] | 0 to 30% |  |
| CCN1C(=O)[C@H](NC(=O)c2cccc(C(F)(F)F)c2)[C@@H](c2ccccc2NC(=O)/C=C/CN(C)C)c2cnn(-c3ccccc3)c21 (racemic) [Compound I-196] | 0 to 30% |  |
| CCN1C(=O)[C@H](NC(=O)c2cccc(C(F)(F)F)c2)[C@@H](c2ccccc2NC(=O)C(Cl)Cl)c2cnn(-c3ccccc3)c21 (racemic) [Compound I-198] | 0 to 30% |  |
| C=C(F)C(=O)Nc1ccccc1[C@H]1c2cnn(-c3ccccc3)c2N(CC)C(=O)[C@@H]1NC(=O)c1cccc(C(F)(F)F)c1 (racemic) [Compound I-199] | 0 to 30% |  |
| CCN1C(=O)[C@H](NC(=O)c2cccc(C(F)(F)F)c2)[C@@H](c2ccccc2NC(=O)COc2c(F)c(F)cc(F)c2F)c2cnn(-c3ccccc3)c21 (racemic) [Compound I-200] | 0 to 30% |  |
